{"source": "patent US20030134901A1", "about": "“Lipoxin compounds and their use in treating cell proliferative disorders” (priority 1993, published 2003)", "system": "PLD activity in human PMN", "assay": "PLD activity (PEt formation) in PMN", "assay_type": "cell-based", "conditions": "biphasic concentration dependence", "description": "PMN, platelet and RBC isolation from peripheral blood. Human PMN were obtained by the modified Böyum method (Böyum, A. (1968) Scan. J. Clin. Lab. Invest. 21:77) from fresh heparinized blood after venipuncture of healthy normal volunteers. Suspensions in PBS were monitored for cell number and viability by their ability to exclude trypan blue both exceeding 98%. Red blood cells were obtained from 10 ml of heparinized blood after three centrifugations in PBS (2,500 rpm, 10 min at 21° C.). Blood drawn in acidic citrate dextrose (9:1, v/v) was used to isolate platelets as previously described (Serhan, C. N. and Sheppard, K.-A. (1990) J. Clin. Invest. 85:772). PLD activity. Human PMN and HL-60 cells (50×10^6 cells/ml) prepared as above were incubated with ^3H-myristic acid or ^3H-palmitic acid (8 μCi/50×10^6 cells) for 40-60 min at 37° C. in PBS. […] Incubations were carried out at 37° C. (10 ×10^6 cells/ml PBS). […] M. et al. (1989) J. Biol. Chem. 264:17069. At indicated times, incubations were stopped by adding 3.5 ml of ice cold CHCl3/MeOH (2/5, v/v) containing 1-^14C-arachidonic acid (5,000 cpm) used here as internal standard to quantitate extraction recoveries. Samples were extracted using a modified Bligh and Dyer extraction as in (Serhan, C. N. and Sheppard, K. -A. (1990) J. Clin. Invest. 85:772). Organic phases, concentrated in 50 μL of CHCl3/MeOH (8/2, v/v), were spotted onto linear […] TLC plates developed with the organic phase of ethyl acetate[…][…] (110/50/20/100, v/v/v/v) for 50 min ([…]. et al.(1989) J. Biol. Chem. 264:17069). […] Regions corresponding to PA, PEt, and internal standards were scraped and quantified by liquid scintillation counting. […] In these experiments, PA was resolved using ethyl acetate[…][…]) as solvent system ([…]. et al. (1989) Anal. […] Impact of IAP and staurosporine on LXA4-induced PLD activity. PLD activity assays, performed as described (vide supra), were preceded by cell exposure to either IAP or staurosporine. […]"}
{"smiles": "CCCCC[C@H](O)/C=C/C=C\\C=C\\C=C\\[C@@H](O)[C@@H](O)CCCC(=O)O", "note": "[LXA4, (5S, 6R, 15S)-trihydroxy-7E, 9E, 11Z, 13E-eicosatetraenoic acid]", "values": [{"measurement": "concentration of second peak of activity, PEt formation", "value": "10^−7 M"}]}
